Assay results published in patent US7820379B2, “Process for high throughput screening of CpG-based immuno-agonist/antagonist” (Coley Pharmaceutical GmbH, priority 2000, dated 2010).

Columns and labels:
[1] = target: T1, murine TLR9 (Mus musculus, UniProt Q9EQU3, L378S/Q579H/T325N/T573A/T867A); test: IL-8 production by ELISA in 293 cells transfected with murine TLR9; assay type: cell-based; settings: 293 cells transiently transfected with mTLR9, stimulated with 1.0 μM CpG-ODN 1668; 48 h
T1 construct: additional primers were designed for amplification of the complete mouse TLR9 cDNA; expressed in transfected cells
T1 sequence (Q9EQU3 26-1032 T325N/L378S/T573A/Q579H/T867A): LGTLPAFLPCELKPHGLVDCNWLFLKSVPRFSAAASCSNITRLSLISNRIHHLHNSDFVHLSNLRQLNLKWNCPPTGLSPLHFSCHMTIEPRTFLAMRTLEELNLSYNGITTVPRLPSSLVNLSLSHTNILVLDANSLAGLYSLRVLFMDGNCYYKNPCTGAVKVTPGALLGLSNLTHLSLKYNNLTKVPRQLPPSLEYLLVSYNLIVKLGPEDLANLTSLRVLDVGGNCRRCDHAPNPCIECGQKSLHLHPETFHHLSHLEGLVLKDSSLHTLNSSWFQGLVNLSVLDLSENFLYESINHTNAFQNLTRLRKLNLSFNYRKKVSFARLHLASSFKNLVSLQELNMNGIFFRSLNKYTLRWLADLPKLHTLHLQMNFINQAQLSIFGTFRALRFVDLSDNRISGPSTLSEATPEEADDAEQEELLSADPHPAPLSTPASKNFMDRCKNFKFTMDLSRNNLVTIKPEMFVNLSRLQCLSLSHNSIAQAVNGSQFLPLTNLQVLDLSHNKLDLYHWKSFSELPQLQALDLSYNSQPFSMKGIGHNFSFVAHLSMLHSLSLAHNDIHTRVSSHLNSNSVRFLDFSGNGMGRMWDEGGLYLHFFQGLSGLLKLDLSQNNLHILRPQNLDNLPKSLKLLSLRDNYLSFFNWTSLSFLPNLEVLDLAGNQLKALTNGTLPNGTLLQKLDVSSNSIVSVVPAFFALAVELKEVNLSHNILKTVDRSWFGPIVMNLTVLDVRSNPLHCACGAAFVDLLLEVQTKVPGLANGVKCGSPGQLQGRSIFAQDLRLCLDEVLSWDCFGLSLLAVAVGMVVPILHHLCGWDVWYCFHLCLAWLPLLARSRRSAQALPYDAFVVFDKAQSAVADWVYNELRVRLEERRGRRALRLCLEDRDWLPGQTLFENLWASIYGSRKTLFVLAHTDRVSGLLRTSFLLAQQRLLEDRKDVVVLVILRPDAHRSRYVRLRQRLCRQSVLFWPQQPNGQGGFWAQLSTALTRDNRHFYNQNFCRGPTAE
Excerpt: Human fibroblast 293 cells were transiently transfected with mTLR9 and the NF-κB-luc construct (FIG. 2). Similar data was obtained for IL-8 production (not shown). Thus expression of TLR9 (human or mouse) in 293 cells results in a gain of function for CpG-DNA stimulation similar to hTLR4 reconstitution of LPS responses.
To generate stable clones expressing human TLR9, murine TLR9, or either TLR9 with the NF-κB-luc reporter plasmid, 293 cells were transfected in 10 cm plates (2×10^6 cells/plate) with 16 μg of DNA and selected with 0.7 mg/ml G418 (PAA Laboratories GmbH, Cölbe, Germany). The clones were also screened for IL-8 production or NF-κB-luciferase activity after stimulation with ODN. Four different types of clones were generated. • 293-hTLR9-luc: expressing human TLR9 and 6-fold NF-κB-luciferase reporter • 293-mTLR9-luc: expressing murine TLR9 and 6-fold NF-κB-luciferase reporter • 293-hTLR9: expressing human TLR9 • 293-mTLR9: expressing murine TLR9
It has been hypothesized that in order for DNA to enter the endosomal/lysosomal compartment a non-CpG dependent uptake receptor may be required. 293 cells were transiently transfected with mTLR9 treated with either medium only or 1.0 μM CpG-ODN 1668 (FIG. 15). […] IL-8 production was monitored after 48 h by ELISA.

[2] = test system: TLR9; test: Expression of TLR9; assay type: cell-based
Excerpt: The invention also embraces agents which bind selectively to certain regulatory sequences associated with the murine TLR9 nucleic acid molecules described herein. The agents include polypeptides which bind to transcription and translation regulatory sequences of murine TLR9, and antisense nucleic acids, both of which are described in greater detail below. The agents can inhibit or increase murine TLR9 expression, as well as signaling activity (antagonists and agonists, respectively). Agents which bind selectively to regulatory sequences associated with the murine TLR9 nucleic acid molecules can be identified using methods familiar to those of skill in the art. For example, a promoter region including at least 100, 200, 300, 400, 500, or more nucleotides upstream (5′) of the coding region of murine TLR9 can be identified by isolating, from appropriate genomic DNA, such nucleotide sequences using the sequences of SEQ ID NO:1 or SEQ ID NO:2 as primers or as probes, and then inserting the promoter region DNA into an appropriate expression vector so as to control the expression of TLR9 or some other reporter gene, introducing the TLR9 promoter vector into an appropriate host cell, and screening for TLR9 or reporter expression by those cells following their incubation in the presence and absence of various test agents. […]

How did the “antagonism of activation (IL-8 production)” value [1] turn out when “5′-CTCCTAGTGGGGGTGTCCTAT-3′ (listed as DNA, chemistry not given here) [PZ2]” was run?
The value was “in a dose-dependent manner, was able to antagonize the activation”.

B1: IL-4: the cytokine IL-4 (protein, UniProt P05112 25-153, looked up)
Interleukin-4: HKCDITLQEIIKTLNSLTEQKTLCTELTVTDIFAASKNTTEKETFCRAATVLRQFYSHHEKDTRCLGATAQQFHRHKQLIRFLKRLDRNLWGLAGLNSCPVKEANQSTLENFLERLKTIMREKYSKCSS
With B1 as the molecule, how does the “expression of TLR9” value [2] read?
The value was “inhibits”.
